{"source": "paper PMC10657444", "about": "“Design and evaluation of tadpole-like conformational antimicrobial peptides” (Communications Biology, 2023)", "key": {"[1]": {"system": "S. aureus ATCC 25923", "assay": "Time-kill assay (growth curve, OD600)", "format": "cell-based, Staphylococcus aureus", "settings": "16 × MIC", "method": "Tube was inoculated (5 × 10^6 CFU/mL) with S. aureus ATCC 25923 and incubated at 37°C under shaking. Bacterial concentration was measured at each time point (0, 1, 2, 2.5, 3, 3.5, 4, 5, 6 and 7 h) by measuring absorbance at 600 nm with a microplate reader."}, "[2]": {"system": "MRSA", "format": "cell-based, Staphylococcus aureus", "text": "(§1) Bacteria were cultivated in Luria-Bertani (LB) broth."}, "[3]": {"system": "Gram-negative bacterial strains", "format": "cell-based", "settings": "A. baumannii and Klebsiella pneumoniae", "text": "as §1"}, "[4]": {"system": "A. baumannii 1318", "format": "cell-based, Acinetobacter baumannii", "text": "as §1"}, "[5]": {"system": "A. baumannii 1337", "format": "cell-based, Acinetobacter baumannii", "text": "as §1"}, "[6]": {"system": "K. pneumoniae 3026", "format": "cell-based, Klebsiella pneumoniae", "text": "as §1"}}, "note": "“And” between values parts separate entries of the source, which are not always exact repeats. Equal entries are not always repeated. Non-standard residues stand in square brackets, D forms with d. Residues, ends and D or L forms follow the SMILES beside them."}
{"smiles": "CC[C@H](C)[C@H](NC(=O)[C@H](CCCNC(=N)N)NC(=O)[C@H](CCCNC(=N)N)NC(=O)[C@H](CC(C)C)NC(=O)[C@H](Cc1ccccc1)NC(=O)[C@@H](N)CCCNC(=N)N)C(=O)N[C@@H](Cc1ccccc1)C(=O)N[C@@H](Cc1ccccc1)C(=O)N[C@@H](Cc1ccccc1)C(=O)N[C@@H](Cc1ccccc1)C(N)=O", "note": "[HT2] (H-RFLRRIFFFF-NH2)", "values": [{"measurement": "time to complete inhibition of bacterial growth", "setting": "[1]", "result": 1, "unit": "h"}, {"measurement": "OD600, growth curve (SI Fig 2)", "setting": "[1]; 0 h", "result": "0.056 and 0.082 and 0.062"}, {"measurement": "OD600, growth curve (SI Fig 2)", "setting": "[1]; 1 h", "result": "0.082 and 0.091 and 0.066"}, {"measurement": "OD600, growth curve (SI Fig 2)", "setting": "[1]; 2 h", "result": "0.069 and 0.072 and 0.06"}, {"measurement": "OD600, growth curve (SI Fig 2)", "setting": "[1]; 2.5 h", "result": "0.061 and 0.073 and 0.063"}, {"measurement": "OD600, growth curve (SI Fig 2)", "setting": "[1]; 3 h", "result": "0.083 and 0.086 and 0.085"}, {"measurement": "OD600, growth curve (SI Fig 2)", "setting": "[1]; 3.5 h", "result": "0.066 and 0.069 and 0.083"}, {"measurement": "OD600, growth curve (SI Fig 2)", "setting": "[1]; 4 h", "result": "0.073 and 0.083 and 0.077"}, {"measurement": "OD600, growth curve (SI Fig 2)", "setting": "[1]; 5 h", "result": "0.07 and 0.073 and 0.058"}, {"measurement": "OD600, growth curve (SI Fig 2)", "setting": "[1]; 6 h", "result": "0.08 and 0.081 and 0.078"}, {"measurement": "OD600, growth curve (SI Fig 2)", "setting": "[1]; 7 h", "result": "0.077 and 0.084 and 0.075"}, {"measurement": "MICs against Gram-positive bacterial strains", "setting": "[2]", "result": "1.57 to 3.13", "unit": "µM"}, {"measurement": "MICs against Gram-negative bacterial strains, such as A. baumannii and Klebsiella pneumoniae", "setting": "[3]", "result": 6.25, "unit": "µM"}]}
{"smiles": "CC[C@@H](C)[C@@H](NC(=O)[C@@H](Cc1ccccc1)NC(=O)[C@@H](Cc1ccccc1)NC(=O)[C@@H](Cc1ccccc1)NC(=O)[C@H](N)Cc1ccccc1)C(=O)N[C@H](CCCNC(=N)N)C(=O)N[C@H](CCCNC(=N)N)C(=O)N[C@H](CC(C)C)C(=O)N[C@H](Cc1ccccc1)C(=O)N[C@H](CCCNC(=N)N)C(N)=O", "note": "[RI-HT2] (H-[dF][dF][dF][dF][dI][dR][dR][dL][dF][dR]-NH2; N-terminus assumed)", "values": [{"measurement": "MIC Gram- A. b 1318", "setting": "[4]", "result": 3.13, "unit": "µM"}, {"measurement": "MIC Gram- A. b 1337", "setting": "[5]", "result": 3.13, "unit": "µM"}, {"measurement": "MIC Gram- K. p 3026", "setting": "[6]", "result": 3.13, "unit": "µM"}]}
